These are literature values, as cited in US5714342A, “Compositions for the detection of protease in biological samples and methods of use therefo” (OncoImmunin, Inc., priority 1995, dated 1998).

Each structure is given as a SMILES string. Bounds are passed on as bounds.

For the series the following is noted: literature (Forster and Konig 1957; Arbeloa and Ojeda 1982); cited from earlier work.

For the molecule `O=C1OC2(c3ccccc31)c1cc(Br)c(O)c(Br)c1Oc1c2cc(Br)c(O)c1Br` [Eosin], the “concentration at which ground-state dimerization of free dye in solution was observed” value is given as “higher than 2.8×10^-2 M”.

As for `CCN(CC)c1ccc2c(-c3ccccc3C(=O)O)c3ccc(=[N+](CC)CC)cc-3oc2c1` [Rhodamine B], the “concentration at which ground-state dimerization of free dye in solution was observed” value is on record as “higher than 6×10^-4 M”.

Take `O=C1OC2(c3ccc(O)cc3Oc3cc(O)ccc32)c2ccccc21` [fluorescein]: the “concentration at which ground-state dimerization of free dye in solution was observed” value was above 0.74 M.
